Source: PMC4234265, “The C-terminus of nisin is important for the ABC transporter NisFEG to confer immunity in Lactococcus lactis” (MicrobiologyOpen, 2014)

Assays:
NZ9000Erm strain = assay: Growth inhibition (IC50) of nisin and variants, sensitive strain; format: cell-based, Lactococcus lactis; conditions: from IC50 values against NZ9000Erm
NZ9000NisFEG strain = assay: Growth inhibition (IC50) of nisin and variants, NisFEG-expressing strain; format: cell-based, Lactococcus lactis; conditions: for Fold of immunity mediated by NisFEG: IC50 against NZ9000NisFEG compared with IC50 against NZ9000Erm; for Activity of NisFEG reduced to: fold of immunity for the variant relative to wild-type nisin
Procedure: The NZ9000NisFEG and NZ9000NisFH181AEG strains were grown in GM17 media supplemented with 5 μg/mL chloramphenicol to an OD600 of 0.8. By the addition of nisin (final concentration of 1 ng/mL), the expression was induced and the culture was further grown overnight. After 15 h, the cells were diluted to an OD600 of 0.1 in fresh media supplemented with 5 μg/mL chloramphenicol and with the inducer nisin (10 ng/mL).
The NZ9000, NZ9000NisFEG, and NZ9000NisFH181AEG strains were grown overnight in GM17 media supplemented with 5 μg/mL chloramphenicol in the presence of 1 ng/mL nisin. The diluted cells (final OD600 was 0.1) were incubated with a serial dilution of nisin or its variants with 50 mmol/L lactic acid in a 96 well microtiter plate. The total volume in each well was 200 μL, consisting of 50 μL nisin and 150 μL GM17 containing the corresponding L. lactis strain.
The plate was incubated at 30°C. After 5 h, the optical density was measured at 620 nm via 96-plate reader BMG. The normalized optical density was plotted against the logarithm of the nisin concentration in order to calculate the IC50 of nisin and the data was evaluated using the following equation (1): [drawing 1] 1
The IC50 value is the concentration of nisin were the growth of the L. lactis strain is inhibited by 50% as described in more detail earlier (Abts et al. [2011]).

SMILES | Fold reduction of antimicrobial activity compared to wild-type nisin (NZ9000Erm strain) [fold] | Fold of immunity mediated by NisFEG (NZ9000NisFEG strain) [fold] | Activity of NisFEG reduced to (NZ9000NisFEG strain) [%] | Reduction of NisFEG activity / fold of immunity (NZ9000NisFEG strain; decrease relative to wild-type nisin) [%]
C=C1NC(=O)[C@H]([C@@H](C)CC)NC(=O)[C@H](NC(=O)/C(=C/C)NC(=O)[C@@H](N)[C@@H](C)CC)CSC[C@@H](C(=O)N[C@H]2C(=O)N3CCC[C@H]3C(=O)NCC(=O)N[C@H](C(=O)N[C@@H](CCCCN)C(=O)N[C@H]3C(=O)NCC(=O)N[C@@H](C)C(=O)N[C@@H](CC(C)C)C(=O)N[C@@H](CCSC)C(=O)NCC(=O)N[C@H](C(=O)N[C@@H](CC(N)=O)C(=O)N[C@@H](CCSC)C(=O)N[C@@H](CCCCN)C(=O)O)CS[C@H]3C)CS[C@H]2C)NC(=O)[C@H](CC(C)C)NC1=O [Nisin1-22] | 25 | 2.5 | 33 | 
C=C1NC(=O)[C@H]([C@@H](C)CC)NC(=O)[C@H](NC(=O)/C(=C/C)NC(=O)[C@@H](N)[C@@H](C)CC)CSC[C@@H](C(=O)N[C@H]2C(=O)N3CCC[C@H]3C(=O)NCC(=O)N[C@H](C(=O)N[C@@H](CCCCN)C(=O)N[C@H]3C(=O)NCC(=O)N[C@@H](C)C(=O)N[C@@H](CC(C)C)C(=O)N[C@@H](CCSC)C(=O)NCC(=O)N[C@H](C(=O)N[C@@H](CC(N)=O)C(=O)N[C@@H](CCSC)C(=O)N[C@@H](CCCCN)C(=O)N[C@H]4C(=O)N[C@@H](C)C(=O)N[C@H]5C(=O)N[C@@H](CS[C@H]4C)C(=O)N[C@@H](Cc4c[nH]cn4)C(=O)N[C@H](C(=O)O)CS[C@H]5C)CS[C@H]3C)CS[C@H]2C)NC(=O)[C@H](CC(C)C)NC1=O [Nisin1-28] | 20 | 3.8 | 60 | 50
